Reference: ChEMBL document CHEMBL4261542, “Recent advances in combretastatin based derivatives and prodrugs as antimitotic agents” (Medchemcomm, 2017)
Each block holds one molecule with its values, some of them ahead of it.

Assays:
Tubulin = test: Inhibition of tubulin polymerization (unknown origin); type: protein-complex assay, Homo sapiens
MCF7 = test: Antiproliferative activity against human MCF7 cells; type: functional, cell-based
A549 = test: Antiproliferative activity against human A549 cells; type: functional, cell-based
DU-145 = test: Antiproliferative activity against human DU145 cells after 48 hrs by MTT assay; type: functional, cell-based; settings: DU-145, 48 h
[1] = Inhibition of [3H]colchicine binding to bovine brain tubulin after 20 mins by spectrophotometric analysis; parameters: species or system Bos taurus
SGC-7901 = test: Antiproliferative activity against human SGC7901 cells after 72 hrs by MTT assay; type: functional, cell-based; settings: SGC-7901, 72 h
L929 = test: Cytotoxicity against mouse L929 cells after 72 hrs by MTT assay; type: cell-based; settings: L929, 72 h
HT-1080 = test: Antiproliferative activity against human HT1080 cells after 72 hrs by MTT assay; type: functional, cell-based; settings: HT-1080, 72 h
KB = test: Antiproliferative activity against human KB cells after 72 hrs by MTT assay; type: functional, cell-based

- IC50 (Tubulin): 2120 nM
SMILES: COc1ccc(N2C(=O)CSC2c2cc(OC)c(OC)c(OC)c2)cc1 (stereo not given)

- IC50 (MCF7): < 100 nM
- IC50 (A549): < 100 nM
SMILES: COc1cc(/C=C(\c2cc(OC)c(OC)c(OC)c2)c2nc3cc(OC)c(OC)cc3o2)ccc1O

- IC50 (DU-145): 100 nM
SMILES: COc1cc(/C=C(\c2cc(OC)c(OC)c(OC)c2)c2nnc(-c3cc(OC)c(OC)c(OC)c3)o2)ccc1O

- IC50 (Tubulin): 1700 nM
SMILES: CCOc1ccc(-c2cc(C)nn2-c2cc(OC)c(OC)c(OC)c2)cc1Cl

- IC50 [1]: 870 nM
SMILES: CCOc1ccc(-c2nccn2-c2cc(OC)c(OC)c(OC)c2)cc1Cl

- IC50 (SGC-7901): 390 nM
- IC50 (HT-1080): 70 nM
- IC50 (KB): 45 nM
SMILES: COc1cc(-n2c(C)ccc2-c2cc(OC)c(OC)c(OC)c2)ccc1N
- IC50 (L929): 30100 nM
